Drawing on patent US8754066B2, “Phenoxy derivatives as sphingosine 1-phosphate (S1P) receptor modulators” (Allergan, Inc., priority 2012, dated 2014), this text covers EC50 for eleven compounds.

The target of the test is T1, human S1P1 receptor (Homo sapiens, UniProt P21453).
T1 construct: expressed in transfected cells; host or cells: unnamed cells stably expressing the receptor; membranes used
T1 sequence (P21453 whole entry): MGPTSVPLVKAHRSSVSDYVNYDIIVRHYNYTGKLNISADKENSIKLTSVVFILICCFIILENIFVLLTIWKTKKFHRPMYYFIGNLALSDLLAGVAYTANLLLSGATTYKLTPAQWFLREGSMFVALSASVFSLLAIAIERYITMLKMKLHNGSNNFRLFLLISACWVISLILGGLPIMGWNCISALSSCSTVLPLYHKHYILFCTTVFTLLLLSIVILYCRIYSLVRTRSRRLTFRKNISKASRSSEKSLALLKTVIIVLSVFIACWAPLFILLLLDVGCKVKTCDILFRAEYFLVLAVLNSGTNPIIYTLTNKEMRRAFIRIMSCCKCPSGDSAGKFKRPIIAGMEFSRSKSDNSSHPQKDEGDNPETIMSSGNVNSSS
The test is described as follows: GTP γ35S binding assay for S1P1 activity. It counts as biochemical. The settings on record: activity potency from GTP γ35S binding; 5 μg membrane protein; test compounds 0.08 to 5,000 nM; 30 min at 25° C. The procedure:
Compounds were synthesized and tested for S1P1 activity using the GTP γ^35S binding assay. These compounds may be assessed for their ability to activate or block activation of the human S1P1 receptor in cells stably expressing the […] receptor.
GTP γ^35S binding was measured in the medium containing (mM) HEPES 25, pH 7.4, MgCl2 10, NaCl 100, dithitothreitol 0.5, digitonin 0.003%, 0.2 nM GTP γ^35S, and 5 μg membrane protein in a volume of 150 μl. Test compounds were included in the concentration range from 0.08 to 5,000 nM unless indicated otherwise. Membranes were incubated with 100 μM 5′-adenylylimmidodiphosphate for 30 min, and subsequently with 10 μM GDP for 10 min on ice. Drug solutions and membrane were mixed, and then reactions were initiated by adding GTP γ^35S and continued for 30 min at 25° C. Reaction mixtures were filtered over Whatman GF/B filters under vacuum, and washed three times with 3 mL of ice-cold buffer (HEPES 25, pH7.4, MgCl2 10 and NaCl 100). Filters were dried and mixed with scintillant, and counted for ^35S activity using a β-counter. Agonist-induced GTP γ^35S binding was obtained by subtracting that in the absence of agonist. Binding data were analyzed using a non-linear regression method. In case of antagonist assay, the reaction mixture contained 10 nM S1P in the presence of test antagonist at concentrations ranging from 0.08 to 5000 nM.
Activity potency: S1P1 receptor from GTP γ^35S: nM, (EC50),
Background: GTPγS is a poorly hydrolysed GTP analogue; its binding reports G protein activation.
In the case of `Cc1ccc(CC(CCCOc2ccc(CNCCCP(=O)(O)O)cc2)c2cc(F)cc(F)c2)cc1C` (centres unmarked) [Compound 9, {3-[(4-{[4-(3,5-difluorophenyl)-5-(3,4-dimethylphenyl)pentyl]oxy}benzyl)amino]propyl}phosphonic acid], the midpoint of the response, the EC50, lay at 0.01 nM. In other words, the picomolar range.

The compound `Cc1ccc(CC(CCCOc2ccc(CNCCC(=O)O)cc2)c2cccc(F)c2F)cc1C` (centres unmarked) [Compound 2, 3-[(4-{[4-(2,3-difluorophenyl)-5-(3,4-dimethylphenyl)pentyl]oxy}benzyl)amino]propanoic acid] returned an EC50 of 0.85 nM.

Take `Cc1ccc(CC(CCCOc2ccc(CNCCC(=O)O)cc2)c2cccc(Cl)c2)cc1C` (centres unmarked) [Compound 5, 3-[(4-{[4-(3-chlorophenyl)-5-(3,4-dimethylphenyl)pentyl]oxy}benzyl)amino]propanoic acid]: the response was half-maximal at 59.5 nM (EC50).

As to `Cc1ccc(CC(CCCOc2ccc(CNCCCP(=O)(O)O)cc2)c2ccsc2)cc1C` (centres unmarked) [Compound 7], the midpoint of the response, the EC50, lay at 2.08 nM.

`Cc1ccc(CC(CCCCOc2ccc(CNCCCP(=O)(O)O)cc2)c2cccc(Cl)c2)cc1C` (centres unmarked) [Compound 8, {3-[(4-{[5-(3-chlorophenyl)-6-(3,4-dimethylphenyl)hexyl]oxy}benzyl)amino]propyl}phosphonic acid] showed an EC50 of 17.1 nM.

`Cc1ccc(CC(CCOc2ccc(CNCCC(=O)O)cc2)c2cccc(Cl)c2)cc1C` (centres unmarked) [Compound 6, 3-({4-[3-(3-chlorophenyl)-4-(3,4-dimethylphenyl)butoxy]benzyl}amino)propanoic acid] yielded an EC50 of 96.9 nM.

Regarding `Cc1ccc(CC(CCCCOc2ccc(CNCCC(=O)O)cc2)c2cccc(Cl)c2)cc1C` (centres unmarked) [Compound 3, 3-[(4-{[5-(3-chlorophenyl)-6-(3,4-dimethylphenyl)hexyl]oxy}benzyl)amino]propanoic acid], the midpoint of the response, the EC50, lay at 134 nM.

With `Cc1ccc(CC(CCCOc2ccc(CNCCCP(=O)(O)O)cc2)c2cccc(Cl)c2)cc1C` (centres unmarked) [Compound 10, {3-[(4-{[4-(3-chlorophenyl)-5-(3,4-dimethylphenyl)pentyl]oxy}benzyl)amino]propyl}phosphonic acid], the EC50 amounted to 0.23 nM.

In turn, `Cc1ccc(CC(CCCOc2ccc(CNCCC(=O)O)cc2)c2ccsc2)cc1C` (centres unmarked) [Compound 1, 3-[(4-{[5-(3,4-dimethylphenyl)-4-(3-thienyl)pentyl]oxy}benzyl)amino]propanoic acid] had a half-maximal effective concentration (EC50) of 14 nM.

For the compound `Cc1ccc(CC(CCCOc2ccc(CNCCC(=O)O)cc2)c2cc(F)cc(F)c2)cc1C` (centres unmarked) [Compound 4, 3-[(4-{[4-(3,5-difluorophenyl)-5-(3,4-dimethylphenyl)pentyl]oxy}benzyl)amino]propanoic acid], a half-maximal effect (EC50) was put at 17.8 nM. The EC50 values of the last two compounds are within 1.5-fold of each other.

As for `Cc1ccc(CC(CCOc2ccc(CNCCCP(=O)(O)O)cc2)c2cccc(Cl)c2)cc1C` (centres unmarked) [Compound 11, [3-({4-[3-(3-chlorophenyl)-4-(3,4-dimethylphenyl)butoxy]benzyl}amino)propyl]phosphonic acid], the midpoint of the response, the EC50, lay at 7.44 nM.

Broadly, the EC50 is the concentration needed to bring the measured effect to its halfway point. Read a high EC50 as weaker potency.
